Laboratory results: patent publication US20240417387A1, “SULFONYLPIPERAZINYL COMPOUNDS FOR TREATMENT OF BACTERIAL INFECTIONS” (Hoffmann-La Roche Inc., priority 2021, published 2024)
≈ marks a conversion by molar mass, not a printed value.

Key:
[1] = tested on: Escherichia coli BW 25113; test: Minimal Inhibitory Concentration (MIC) broth dilution assay, E. coli BW 25113; format: cell-based; conditions: Escherichia coli, BW25113, 20 hours at 35° C., CAMHB, read-out: MIC E. coli K-12 BW 25113
In short: (§1)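 Broth microdilution with twofold compound series in cation-adjusted Mueller Hinton broth, inoculum 5×10^5 CFU/mL, applied to each strain. Plates incubated 20 h at 35 °C in ambient air. MIC […] recorded as the lowest concentration with no visible growth, read by eye.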

[2] = Human microsome stability assay; format: in vitro ADME; conditions: human liver microsomes 0.5 mg/mL, 37° C., pH 7.4, NADPH regenerating system
In short: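 Compound […] with 0.5 mg/mL human liver microsomal protein in 100 mM potassium phosphate pH 7.4, 10 min preincubation at 37 °C, started with NADPH regenerating system. Sampled 0–30 min, remaining compound by LC-MS/MS; clearance binned low <7, medium 7–16.2, high >16.2 mL/min/kg.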

[3] = tested on: Escherichia coli ATCC 25922; test: Minimal Inhibitory Concentration (MIC) broth dilution assay, E. coli ATCC 25922; format: cell-based; conditions: Escherichia coli, ATCC25922, 20 h, read-out: MIC E. coli ATCC 25922
In short: as §1

[4] = tested on: Klebsiella pneumonia ATCC 43816; test: Minimal Inhibitory Concentration (MIC) broth dilution assay, K. pneumonia ATCC 43816; format: cell-based; conditions: Klebsiella pneumoniae, ATCC43816, 20 hours at 35° C., CAMHB, read-out: MIC K. p ATCC 43816
In short: as §1

[5] = biological target: Escherichia coli UDP-2,3-diacylglucosamine hydrolase (LpxH) (Escherichia coli (strain K12), UniProt P43341); test: Enzymatic IC50 assay of Escherichia coli LpxH (UMP/CMP-Glo luminescence); format: biochemical; conditions: Enzymatic IC50 against Escherichia coli LpxH; read-out: IC50 (converted)
In short: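 LpxH (2 nM) preincubated 10 min at room temperature with compound (100 μM to 1.7 nM) in Tris-HCl pH7.5 buffer with 2.5 mM MnCl2, then reacted with 5 μM UDP-DAG for 20 min. Reaction heat-stopped at 95° C.; released UMP converted to ATP and read by luciferase luminescence (UMP/CMP-Glo).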

Escherichia coli UDP-2,3-diacylglucosamine hydrolase (LpxH), sequence (P43341 whole entry): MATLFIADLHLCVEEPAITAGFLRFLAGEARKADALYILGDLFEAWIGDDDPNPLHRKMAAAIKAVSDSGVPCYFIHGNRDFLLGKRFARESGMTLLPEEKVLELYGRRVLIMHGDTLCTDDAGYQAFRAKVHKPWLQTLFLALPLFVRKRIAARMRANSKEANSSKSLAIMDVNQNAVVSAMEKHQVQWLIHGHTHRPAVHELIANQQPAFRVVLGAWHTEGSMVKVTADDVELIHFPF

With NCCN1CCN(C(=O)[C@H]2CC[C@H](C(F)(F)c3cc(Cl)nc(N4CCN(S(=O)(=O)c5ccc(N6C[C@H](N)CC6=O)cc5)CC4)c3)CC2)CC1 [Example 013, Trans-(4R)-4-amino-1-[4-[4-[4-[[4-[4-(2-aminoethyl)piperazine-1-carbonyl]cyclohexyl]-difluoro-methyl]-6-chloro-2-pyridyl]piperazin-1-yl]sulfonylphenyl]pyrrolidin-2-one] the MIC [1] was 2.6 µg/mL (≈ 3.59 µM), the “Clearance of Human microsome” value [2] was 6.77 mL/min/kg and the MIC [3] was 2.6 µg/mL (≈ 3.59 µM). It also gave an MIC [4] of 1.3 µg/mL (≈ 1.8 µM) and an IC50 [5] of 4.15 nM.

For NC(=O)[C@H]1CC[C@H](C(F)(F)c2cc(Cl)nc(N3CCN(S(=O)(=O)c4ccc(N5C[C@H](N)CC5=O)cc4)CC3)c2)CC1 [Example 014], the MIC [1] was 1.1 µg/mL (≈ 1.8 µM), the “Clearance of Human microsome” value [2] was 6.15 mL/min/kg and the MIC [3] was 1.1 µg/mL (≈ 1.8 µM). For the same molecule, the MIC [4] was 1.1 µg/mL (≈ 1.8 µM) and the IC50 [5] was < 3.27 nM.

For CN(C)CCCNC(=O)c1ccc(C(F)(F)c2cc(Cl)nc(N3CCN(S(=O)(=O)c4ccc(N5C[C@H](N)CC5=O)cc4)CC3)c2)cc1 [Example 020, 4-[[2-chloro-6-[4-[4-[(4R)-4-amino-2-oxo-pyrrolidin-1-yl]phenyl]sulfonylpiperazin-1-yl]-4-pyridyl]-difluoro-methyl]-N-[3-(dimethylamino)propyl]benzamide], the MIC [1] was 0.72 µg/mL (≈ 1.04 µM), the “Clearance of Human microsome” value [2] was 9.48 mL/min/kg and the MIC [3] was 0.72 µg/mL (≈ 1.04 µM). For the same molecule, the MIC [4] was 0.72 µg/mL (≈ 1.04 µM) and the IC50 [5] was 2.9 nM.

In the case of NCCCNC(=O)c1cnc(C(F)(F)c2cc(Cl)nc(N3CCN(S(=O)(=O)c4ccc(N5C[C@H](N)CC5=O)cc4)CC3)c2)cn1 [Example 021, N-(3-aminopropyl)-5-[[2-chloro-6-[4-[4-[(4R)-4-amino-2-oxo-pyrrolidin-1-yl]phenyl]sulfonylpiperazin-1-yl]-4-pyridyl]-difluoro-methyl]pyrazine-2-carboxamide], the MIC [1] is reported as 2.2 µg/mL (≈ 3.31 µM), the “Clearance of Human microsome” value [2] is reported as 10.85 mL/min/kg and the MIC [3] is reported as 1.3 µg/mL (≈ 1.96 µM). It also gave an MIC [4] of 1.8 µg/mL (≈ 2.71 µM) and an IC50 [5] of 3.01 nM.

For NCC(O)CNC(=O)c1cnc(C(F)(F)c2cc(Cl)nc(N3CCN(S(=O)(=O)c4ccc(N5C[C@H](N)CC5=O)cc4)CC3)c2)cn1 (stereo partly drawn) [Example 022, N-(3-amino-2-hydroxy-propyl)-5-[[2-chloro-6-[4-[4-[(4R)-4-amino-2-oxo-pyrrolidin-1-yl]phenyl]sulfonylpiperazin-1-yl]-4-pyridyl]-difluoro-methyl]pyrazine-2-carboxamide], the MIC [1] was 1.4 µg/mL (≈ 2.06 µM), the “Clearance of Human microsome” value [2] was 6.15 mL/min/kg and the MIC [3] was 0.71 µg/mL (≈ 1.04 µM). For the same molecule, the MIC [4] was 0.71 µg/mL (≈ 1.04 µM) and the IC50 [5] was 5.88 nM.

With CN(C)CCCNC(=O)c1cnc(C(F)(F)c2cc(Cl)nc(N3CCN(S(=O)(=O)c4ccc(N5C[C@H](N)CC5=O)cc4)CC3)c2)cn1 [Example 023, 5-[[2-chloro-6-[4-[4-[(4R)-4-amino-2-oxo-pyrrolidin-1-yl]phenyl]sulfonylpiperazin-1-yl]-4-pyridyl]-difluoro-methyl]-N-[3-(dimethylamino)propyl]pyrazine-2-carboxamide] the MIC [1] was 1.4 µg/mL (≈ 2.02 µM), the “Clearance of Human microsome” value [2] was 6.15 mL/min/kg and the MIC [3] was 1.4 µg/mL (≈ 2.02 µM). For the same molecule, the MIC [4] was 2.9 µg/mL (≈ 4.19 µM) and the IC50 [5] was < 2.89 nM.

For NCCNC(=O)c1cnc(C(F)(F)c2cc(Cl)nc(N3CCN(S(=O)(=O)c4ccc(N5C[C@H](N)CC5=O)cc4)CC3)c2)cn1 [Example 024, N-(2-aminoethyl)-5-[[2-chloro-6-[4-[4-[(4R)-4-amino-2-oxo-pyrrolidin-1-yl]phenyl]sulfonylpiperazin-1-yl]-4-pyridyl]-difluoro-methyl]pyrazine-2-carboxamide], the MIC [1] was 0.69 µg/mL (≈ 1.06 µM), the “Clearance of Human microsome” value [2] was 11.22 mL/min/kg and the MIC [3] was 0.69 µg/mL (≈ 1.06 µM). The MIC [4] was 0.69 µg/mL (≈ 1.06 µM) and the IC50 [5] was 4.61 nM.

For NCCCNC(=O)c1ccc(C(F)(F)c2cc(Cl)nc(N3CCN(S(=O)(=O)c4ccc(N5C[C@H](N)CC5=O)cc4)CC3)c2)nc1 [Example 026, N-(3-aminopropyl)-6-[[2-chloro-6-[4-[4-[(4R)-4-amino-2-oxo-pyrrolidin-1-yl]phenyl]sulfonylpiperazin-1-yl]-4-pyridyl]-difluoro-methyl]pyridine-3-carboxamide], the MIC [1] was 0.78 µg/mL (≈ 1.18 µM), the “Clearance of Human microsome” value [2] was 6.15 mL/min/kg and the MIC [3] was 0.78 µg/mL (≈ 1.18 µM). For the same molecule, the MIC [4] was 0.78 µg/mL (≈ 1.18 µM) and the IC50 [5] was 10.6 nM.

In the case of CN(C)CCCNC(=O)c1ccc(C(F)(F)c2cc(Cl)nc(N3CCN(S(=O)(=O)c4ccc(N5C[C@H](N)CC5=O)cc4)CC3)c2)nc1 [Example 027, 6-[[2-chloro-6-[4-[4-[(4R)-4-amino-2-oxo-pyrrolidin-1-yl]phenyl]sulfonylpiperazin-1-yl]-4-pyridyl]-difluoro-methyl]-N-[3-(dimethylamino)propyl]pyridine-3-carboxamide], the MIC [1] is reported as 1.6 µg/mL (≈ 2.31 µM), the “Clearance of Human microsome” value [2] is reported as 6.15 mL/min/kg and the MIC [3] is reported as 3.2 µg/mL (≈ 4.63 µM). The MIC [4] was 3.2 µg/mL (≈ 4.63 µM) and the IC50 [5] was 5.79 nM.

For CNCCCNC(=O)c1ccc(C(F)(F)c2cc(Cl)nc(N3CCN(S(=O)(=O)c4ccc(N5C[C@H](N)CC5=O)cc4)CC3)c2)cn1 [Example 029, 5-[[2-chloro-6-[4-[4-[(4R)-4-amino-2-oxo-pyrrolidin-1-yl]phenyl]sulfonylpiperazin-1-yl]-4-pyridyl]-difluoro-methyl]-N-[3-(methylamino)propyl]pyridine-2-carboxamide], the MIC [1] was 2.8 µg/mL (≈ 4.13 µM), the “Clearance of Human microsome” value [2] was 7.22 mL/min/kg and the MIC [3] was 1.4 µg/mL (≈ 2.07 µM). It also gave an MIC [4] of 1.4 µg/mL (≈ 2.07 µM) and an IC50 [5] of 2.95 nM.

For CN(CCN)C(=O)[C@H]1CC[C@H](C(F)(F)c2cc(Cl)nc(N3CCN(S(=O)(=O)c4ccc(N5C[C@H](N)CC5=O)cc4)CC3)c2)CC1 [Example 030, Trans-N-(2-aminoethyl)-4-[[2-chloro-6-[4-[4-[(4R)-4-amino-2-oxo-pyrrolidin-1-yl]phenyl]sulfonylpiperazin-1-yl]-4-pyridyl]-difluoro-methyl]-N-methyl-cyclohexanecarboxamide], the MIC [1] was 1.7 µg/mL (≈ 2.54 µM), the “Clearance of Human microsome” value [2] was 6.90 mL/min/kg and the MIC [3] was 1.1 µg/mL (≈ 1.65 µM). For the same molecule, the MIC [4] was 1.7 µg/mL (≈ 2.54 µM) and the IC50 [5] was 8.98 nM.

In the case of NCCCNC(=O)[C@H]1CC[C@@H](C(F)(F)c2cc(Cl)nc(N3CCN(S(=O)(=O)c4ccc(N5C[C@H](N)CC5=O)cc4)CC3)c2)CC1 [Example 031], the MIC [1] is reported as 1.7 µg/mL (≈ 2.54 µM), the “Clearance of Human microsome” value [2] is reported as 6.15 mL/min/kg and the MIC [3] is reported as 2.2 µg/mL (≈ 3.29 µM). For the same molecule, the MIC [4] was 2.2 µg/mL (≈ 3.29 µM) and the IC50 [5] was 7.48 nM.

With NCCCNC(=O)C12CCC(C(F)(F)c3cc(Cl)nc(N4CCN(S(=O)(=O)c5ccc(N6C[C@H](N)CC6=O)cc5)CC4)c3)(CC1)CC2 [Example 033, N-(3-aminopropyl)-4-[[2-chloro-6-[4-[4-[(4R)-4-amino-2-oxo-pyrrolidin-1-yl]phenyl]sulfonylpiperazin-1-yl]-4-pyridyl]-difluoro-methyl]bicyclo[2.2.2]octane-1-carboxamide] the MIC [1] was 1.1 µg/mL (≈ 1.58 µM), the “Clearance of Human microsome” value [2] was 10.77 mL/min/kg and the MIC [3] was 0.57 µg/mL (≈ 0.821 µM). The MIC [4] was 0.43 µg/mL (≈ 0.619 µM) and the IC50 [5] was 5.76 nM.

For NCCCNC(=O)C12CCC(C(F)(F)c3cc(Cl)nc(N4CCN(S(=O)(=O)c5ccc(N6C[C@H](N)CC6=O)cc5)CC4)c3)(CC1)C2 [Example 034, N-(3-aminopropyl)-4-[[2-chloro-6-[4-[4-[(4R)-4-amino-2-oxo-pyrrolidin-1-yl]phenyl]sulfonylpiperazin-1-yl]-4-pyridyl]-difluoro-methyl]norbornane-1-carboxamide], the MIC [1] was 1.7 µg/mL (≈ 2.5 µM), the “Clearance of Human microsome” value [2] was 6.15 mL/min/kg and the MIC [3] was 1.1 µg/mL (≈ 1.62 µM). The MIC [4] was 1.1 µg/mL (≈ 1.62 µM) and the IC50 [5] was 29.4 nM.
